The nature of data set [1]: Selectivity index, ratio of CC50 for human P3HR1 cells to EC50 for EBV. Conditions: read-out: Ratio CC50/EC50. Type of data set: toxicity.
The test system of data set [2] is BV-2. The data set can be described thus: Antiinflammatory activity in mouse BV2 cells assessed as reduction in LPS-induced nitric oxide production at 10 uM by colorimetric assay relative to control. Type of data set: functional.
Data set [3] relates to BV-2. Description: Antiinflammatory activity in mouse BV2 cells assessed as reduction in LPS-induced nitric oxide production by colorimetric assay. Type of data set: functional, cell-based.
The test system of data set [4] is Human gammaherpesvirus 4. The data set can be described thus: Antiviral activity against EBV infected in P3HR1 cells assessed as decrease in viral replication. Type of data set: functional, organism-based. The conditions noted are these: human gammaherpesvirus 4, P3HR-1.
Data set [5] has as its system Human gammaherpesvirus 4. The data set can be described thus: Antiviral activity against EBV infected in P3HR1 cells assessed as decrease in Rta cells at 10 uM measured after 24 hrs by Western blot analysis relative to control. Type of data set: functional. Conditions: human gammaherpesvirus 4, P3HR-1.
Data set [6] is described as follows: Cytotoxicity against human P3HR1 cells. Type of data set: toxicity, cell-based, P3HR-1.

Consider `O=C1C=Cc2c3c4c(c(O)ccc4c4ccc(O)c1c24)[C@@H](O)[C@@H](Cl)[C@H]3O`, for which the selectivity ratio in data set [1] is 26.1. The inhibition at 10 µM worked out at 94.9% in the data set with BV-2 [2] and 100% with Human gammaherpesvirus 4 [5]. Also, the IC50 in the data set on BV-2 [3] came to 0.73 µM. The EC50 in the data set with Human gammaherpesvirus 4 [4] was determined as 1.51 µM. For the same molecule, the CC50 in data set [6] was 39.4 µM.

Consider `O=C1C=Cc2c3c4c(c(O)ccc4c4ccc(O)c1c24)[C@@H](O)[C@H](Cl)[C@@H]3O`, for which, in data set [1], the selectivity ratio was over 32. The inhibition at 10 µM in the data set on BV-2 [2] amounted to 76.2%; in the data set with Human gammaherpesvirus 4 [5], 100%. Moreover, the IC50 in the data set on BV-2 [3] is 2.06 µM. Besides, the EC50 in the data set with Human gammaherpesvirus 4 [4] was 3.13 µM. Further, the CC50 in data set [6] is over 100 µM.

Regarding `COc1cc(/C=C/C(=O)CC(=O)/C=C/c2ccc(O)c(OC)c2)ccc1O` [CURCUMIN], the IC50 in the data set on BV-2 [3] came to 2.69 µM.

As to `O=C1C[C@H](SCC(O)C(=O)O)[C@@]2(O)c3c(ccc(O)c31)-c1ccc(O)c3c1[C@@H]2[C@@H](Cl)[C@H](O)[C@@H]3O` (stereo partly drawn), in data set [1], the selectivity ratio worked out at 13.5. Moreover, the inhibition at 10 µM with BV-2 [2] was 102%; with Human gammaherpesvirus 4 [5], 100%. For the same molecule, in the data set on BV-2 [3], the IC50 stood at 0.33 µM. Further, the EC50 in the data set with Human gammaherpesvirus 4 [4] came out at 0.17 µM. Also, the CC50 in data set [6] is 2.3 µM.

Turning to `CO[C@H]1c2c3c4c(c(O)ccc4c4ccc(O)c(c24)[C@@H](O)[C@H]1O)C(=O)C=C3`, in data set [1], the selectivity ratio was 49.7. Also, the figures for the inhibition at 10 µM with BV-2 [2] and in the data set on Human gammaherpesvirus 4 [5] were 105% and 100%, respectively. Further, in the data set on BV-2 [3], the IC50 amounted to 2.73 µM. Besides, the EC50 in the data set on Human gammaherpesvirus 4 [4] came out at 1.21 µM. The midpoint of cytotoxicity in data set [6], the CC50, lay at 60.1 µM.

In the case of `O=C1C=Cc2c3c4c(c(O)ccc4c4ccc(O)c1c24)[C@@H](O)[C@H](O)[C@@H]3O`, the selectivity ratio in data set [1] worked out at 64.3. Further, the inhibition at 10 µM in the data set on BV-2 [2] stood at 20.2%; in the data set with Human gammaherpesvirus 4 [5], 100%. Further, in the data set with Human gammaherpesvirus 4 [4], the EC50 came out at 1.34 µM. The CC50 in data set [6] came to 86.1 µM.

In the case of `CC[C@H](C)[C@@H]1NC(=O)C(C(C)=O)=C1O` [TENUAZONIC ACID], the inhibition at 10 µM in the data set on BV-2 [2] stood at 62.9%; with Human gammaherpesvirus 4 [5] it was 23%.

For `CC[C@H](C)[C@H]1NC(=O)C(C(C)=O)=C1O`, the results for the inhibition at 10 µM with BV-2 [2] and in the data set with Human gammaherpesvirus 4 [5] were 41.1% and -5%, respectively.

Turning to `O=C1C[C@@H](O)[C@@H]2c3ccc(O)c4c3[C@@H](c3ccc(O)c1c32)[C@H](O)CC4=O` [STEMPHYPERYLENOL], the inhibition at 10 µM in the data set on BV-2 [2] is 77.4%; in the data set on Human gammaherpesvirus 4 [5] it was 34%. For the same molecule, the IC50 in the data set with BV-2 [3] was 3.25 µM.

As for `O=C1C[C@H](O)[C@H]2c3ccc(O)c4c3[C@H](c3ccc(O)c1c32)[C@@H](O)[C@@H](Cl)[C@@H]4O`, the selectivity ratio in data set [1] is 25.3. Besides, the inhibition at 10 µM with BV-2 [2] was determined as 92.1%; with Human gammaherpesvirus 4 [5], 100%. In addition, the IC50 with BV-2 [3] stood at 4.08 µM. In addition, in the data set with Human gammaherpesvirus 4 [4], the EC50 turned out to be 2.42 µM. The CC50 in data set [6] stood at 61.2 µM.

As a reminder, the inhibition is the drop in the measured response relative to a control, in per cent. One may read the IC50 as the midpoint of a concentration-inhibition curve. The EC50 is the midpoint of the concentration-response curve. Usually CC50 stands for the concentration that lowers cell viability or growth by half. High values mean better tolerance by the cells, low ones harm at low concentration.

The values above are taken from ChEMBL document CHEMBL5126664, “Anti-Epstein-Barr Viral Agents from the Medicinal Herb-Derived Fungus Alternaria alstroemeriae Km2286” (J Nat Prod, 2022).
